Columns and labels:
spinal cord neurons = assay: Oxidative stress-induced apoptosis (condensed and fragmented nuclei, Hoechst staining); format: cell-based
Text: FIG. 3B is a control for FIG. 3A. FIG. 3C is a bar diagram summary of the percent of neurons with condensed fragmented nuclei after H2O2 treatment. The concentrations of H2O2 used are shown on the x-axis.
Central to the proposed therapeutic intervention is the belief that SCN undergo apoptosis and possibly necrosis under oxidative stress. […] Image pairs, obtained from H2O2-treated (FIG. 3A) and non-treated (FIG. 3B) SCN, are shown in both phase contrast and after Hoechst nuclear staining. Many of the neurons in FIG. 3A show condensed and fragmented nuclei (arrows) indicative of apoptotic cells. In contrast, control neurons in FIG. 3B show predominantly diffuse nuclear staining (arrows). […] This percentage increased to […] for 500 μM H2O2. […] These changes were concentration-dependent and increased by mtGSH depletion. […] In contrast, immunoreactivity to cytochrome C oxidase (COX), a marker in the inner mitochondrial membrane remains independent of the mitochondrial insults by H2O2 (FIG. 3E). The differential staining between Cyt C and COX affords a secondary method to assess whether a given neuron has undergone mitochondrial permeability transition (MPT).

[1] = test system: cultured neonatal rat ventricular myocytes; assay: H2O2-induced depolarization of mitochondrial membrane potential (TMRM fluorescence) in myocytes; format: cell-based; conditions: for onset of H2O2-induced depolarization and loss of TMRM fluorescence: pretreatment 50 or 100 μM for 30 minutes
Experimental: TMRM is a lipophilic cation that partitions selectively into the negatively charged mitochondria Neonatal cultured myocytes (6 days in culture) were loaded with 10 nM TMRM for 60 minutes at 37° C. The myocytes were pretreated with either 50 or 100 μM Mito GSH or 100 μM non-targeted GSH for 30 minutes and then washed to remove the antioxidants from the solution in which myocytes were suspended. As a control, myocytes were not pretreated with any drug. TMRM was excited at 555 nm and fluorescence emission was detected at 590 nm. Fluorescence images were taken every 2 minutes. At the arrow, myocytes were subjected to oxidative stress by adding 50 μM H2O2. Plots were normalized to baseline, and are shown as F/Fo, where F is the emitted fluorescence at any given time and Fo is the baseline fluorescence before addition of H2O2. […] The traces were drawn from the mean values of 7-10 experiments.
TMRM was used as an indicator of mitochondrial membrane potential. The myocytes were pretreated with 50 μM Mito GSH for 30 minutes and then washed to remove the antioxidant from the solution in which myocytes were suspended. In control, myocytes were not pretreated with any drug. TMRM was excited at 555 nm and fluorescence emission was detected at 590 nm. Fluorescence images were taken every 2 minutes to avoid photobleaching and phototoxicity. Myocytes were subjected to oxidative stress by adding 50 μM H2O2.

Rat heart mitochondria [2] = assay: Mitochondrial membrane potential by TPP+ sensitive electrode under rotenone/t-BuOOH oxidative stress; format: biochemical; conditions: pretreatment 5 mM at 4° C. for 30 minutes; 5 μM rotenone and 100 μM t-BuOOH; TPP+ signal
Experimental: Mitochondrial membrane potential was measured by a TPP+ (tetraphenyl phosphonium) sensitive electrode. Rat heart mitochondria (1 mg protein/100 μl) were transferred to a beaker (at the first arrow) containing 0.9 ml of 150 mM KCl, 5 mM Hepes, 6 μM TPP+ and 5 mM succinate buffer. […] At the second arrow, mitochondria were subjected to oxidative stress by adding 5 μM rotenone (Complex I inhibitor) and 100 μM tert-butylhydroperoxide (t-BuOOH) to the buffer.

brain striatal neurons = conditions: pretreatment 100 μM; 100 μM NMDA; DCF fluorescence
Experimental: Intracellular reactive oxygen species (ROS) were measured by using the redox-sensitive dye, dichlorohydrofluorescein (H2DCFDA). […] Cultured striatal neurons (10 days in culture) were loaded with 50 nM H2DCFDA for 25 min. The neurons were excited at 488 nm and the image was acquired at 515 nm wavelength. ROS production was induced by treating the neurons with 100 μM NMDA. An increase in DCFDA fluorescence by NMDA treatment reflected an increased production of ROS or oxidative stress. […] Plots were normalized to baseline, and are shown as F/Fo, where F is the emitted fluorescence at any given time and Fo is the baseline fluorescence before addition of NMDA. […] The traces were drawn from the mean values of 3 experiments.

Rat heart mitochondria [3] = assay: Mitochondrial membrane potential by safranine fluorescence under rotenone/t-BuOOH oxidative stress; format: biochemical; conditions: pretreatment 5 mM for 30 minutes; 5 μM rotenone and 100 μM t-BuOOH
Experimental: Mitochondrial membrane potential was measured by safranine. Safranine is a positively charged dye that accumulates in mitochondria on establishment of an electrical potential across the mitochondrial inner membrane. However, its fluorescence is quenched by its accumulation in mitochondria in response to mitochondrial membrane potential. Rat heart mitochondria (0.2 mg protein/200 μl) were transferred to a well containing 0.3 ml of 150 mM KCl, 5 mM Hepes, 15 μM safranine, 5 mM succinate buffer, 5 μM rotenone and 100 μM t-BuOOH. The mitochondria were placed in a multiplate reader. Fluorescence measurements were made with excitation and emission wavelengths of 485 and 585 nm respectively. Rotenone and t-BuOOH induced mitochondrial membrane potential resulting in a release of intramitochondrial safranine indicated by an increase in fluorescence signal.

[4] = test system: Male Sprague-Dawley rat hearts; conditions: 50 μM for 10 min prior to ischemia
Experimental: Male Sprague-Dawley rat hearts were retrograde (Langendorff) perfused with oxygenated Krebs Henseleit (KH) buffer in constant flow mode (12 mL/min/gram wet weight). Hearts were not electrically stimulated, and beat spontaneously at approximately 280 bpm. Left-ventricular pressure (LVP) was measured by a balloon inserted in the left ventricle, linked to a pressure transducer with digital recording at 500 Hz. […] Following an equilibration period of approximately 25 mm., global normothermic ischemia was imposed for 25 mm., followed by reperfusion for 30 mm as indicated by the arrows on the traces. For mNAC treatment, the drug was dissolved in KH buffer and infused via a port just above the aortic perfusion cannula, at a final concentration of 50 μM, for 10 min. prior to the onset of ischemia.
The ability of mitochondrially targeted N-acetylcysteine (mNAC) to improve post-ischemic recovery in rat heart was assessed. Male Sprague-Dawley rat hearts were retrograde (Langendorff) perfused with oxygenated Krebs Henseleit (KH) buffer in constant flow mode (12 mL/min/gram wet weight). Hearts were not electrically stimulated, and beat spontaneously at approximately 280 beats per minute. Left-ventricular pressure (LVP) was measured by a balloon inserted in the left ventricle, linked to a pressure transducer with digital recording at 500 Hz. […]

C=CC(O)CC(=O)O (stereo not shown) [3-HP, 3-hydroxy-4-pentenoate]
cells with condensed and fragmented nuclei (spinal cord neurons; mtGSH depletion by 3-HP prior to 250 μM H2O2 treatment): 70%

N[C@@H](CCC(=O)N[C@@H](CS)C(=O)NCC(=O)O)C(=O)O [GSH, glutathione, reference compound]
time for onset of H2O2-induced depolarization (versus control) ([1]; pretreatment 100 μM): did not significantly increase the time for onset of H2O2-induced depolarization

OO [H2O2]
neurons with condensed and fragmented nuclei (spinal cord neurons; 250 μM H2O2): ~42%

C[N+](C)(C)CCOC(=O)CNC(=O)[C@H](CS)NC(=O)CC[C@H](N)C(=O)O.[Cl-] [Mito GSH, Glutathione choline ester chloride]
oxidative stress-induced depolarization of mitochondrial membrane potential (Rat heart mitochondria [2]): prevented the oxidative stress-induced depolarization significantly
time for onset of H2O2-induced depolarization (versus control) ([1]; pretreatment 50 μM): significantly enhanced the time for onset of H2O2-induced depolarization
time to which TMRM fluorescence persisted after H2O2 treatment ([1]; pretreatment 50 μM for 30 minutes, 50 μM H2O2, control invisible at 32 minutes): 50 min
time for onset of H2O2-induced depolarization (versus control) ([1]; pretreatment 100 μM): significantly enhanced the time for onset of H2O2-induced depolarization
Time for onset of H2O2-induced depolarization ([1]; pretreatment 100 μM, control 25±3.2 min): 53 ± 3.6 min
onset of H2O2-induced depolarization and loss of TMRM fluorescence ([1]; 50 μM H2O2): delayed onset of H2O2-induced depolarization and loss of TMRM fluorescence
NMDA-induced increase in ROS production (brain striatal neurons): prevented NMDA-induced increase in ROS production

CC(=O)N[C@@H](CSC(C)=O)C(=O)OCC[N+](C)(C)C [N,S-acetyl cysteine choline ester, S,N-acetyl-L-cysteine choline ester]
release of intramitochondrial safranine (depolarization of mitochondrial membrane potential) (Rat heart mitochondria [3]): diminished the release of intramitochondrial safaranine

C[N+](C)(C)CCOC(=O)[C@@H](N)CS.[Cl-] [cysteine choline ester, [2-(2-Amino-3-mercapto-L-propionyloxy)-ethyl]-trimethyl-ammonium chloride]
oxidative stress-induced depolarization of mitochondrial membrane potential (Rat heart mitochondria [2]): prevented the oxidative stress-induced depolarization significantly

CC(=O)N[C@@H](CS)C(=O)OCC[N+](C)(C)C [mNAC, N-acetyl-L-cysteine choline ester]
oxidative stress-induced depolarization of mitochondrial membrane potential (Rat heart mitochondria [2]): prevented the oxidative stress-induced depolarization significantly
onset of H2O2-induced depolarization and loss of TMRM fluorescence ([1]; 50 μM H2O2): delayed onset of H2O2-induced depolarization and loss of fluorescence
onset of ischemic contracture [4]: appeared to delay the onset of ischemic contracture
overall recovery of LV developed pressure (systolic minus diastolic) ([4]; 25 min global ischemia, 30 min reperfusion, control 4.1%): 15.7%

Source: patent publication US7585846B2, “Compounds for delivering amino acids or peptides with antioxidant activity into mitochondria and use thereof” (University of Rochester, priority 2003, dated 2009)
